Data taken from US10294202B2, “Pyrrolidinones as herbicides” (FMC Corporation, priority 2013, dated 2019).

What was measured:
Test in all cases: Test D pre-/postemergence herbicide test
radish, wild = assay type: in vivo, Raphanus raphanistrum; conditions: for Plant response rating: Postemergence, Radish, Wild, scale 0 to 100; for Plant response rating, Radish, Wild: Preemergence, scale 0 to 100 (0 no effect, 100 complete control)
From the text: (§1) Seeds of plant species selected from bluegrass (annual bluegrass, Poa annua), blackgrass (Alopecurus myosuroides), canarygrass (littleseed canarygrass, Phalaris minor), chickweed (common chickweed, Stellaria media), galium (catchweed bedstraw, Galium aparine), bromegrass, downy (downy bromegrass, Bromus tectorum), field poppy (Papaver rhoeas), field violet (Viola arvensis), foxtail, green (green foxtail, Setaria viridis), deadnettle (henbit deadnettle, Lamium amplexicaule), ryegrass, Italian (Italian ryegrass, Lolium multiflorum), kochia (Kochia scoparia), lambsquarters (Chenopodium album), oilseed rape (Brassica napus), pigweed (Amaranthus retroflexus), chamomile (scentless chamomile, Matricaria inodora), Russian thistle (Salsola kali), speedwell (bird's-eye speedwell, Veronica persica), barley, spring (spring barley, Hordeum vulgare), wheat, spring (spring wheat, Triticum aestivum), buckwheat, wild (wild buckwheat, Polygonum convolvulus), mustard, wild (wild mustard, Sinapis arvensis), oat, wild (wild oat, Avena fatua), radish, wild (wild radish, Raphanus raphanistrum), […]), barley, winter (winter barley, Hordeum vulgare), and wheat, winter (winter wheat, Triticum aestivum) were planted into a silt loam soil and treated preemergence with test chemicals formulated in a non-phytotoxic solvent mixture which included a surfactant. At the same time, these species were planted in pots containing Redi-Earth® planting medium (Scotts Company, 14111 Scottslawn Road, Marysville, Ohio 43041) comprising spaghnum peat moss, vermiculite, wetting agent and starter nutrients and treated with postemergence applications of the test chemicals formulated in the same manner. Plants ranged in height from 2 to 18 cm (1- to 4-leaf stage). Treated plants and controls were maintained in a controlled growth environment for 7 to 21 days after which time all species were compared to controls and visually evaluated. Plant response ratings, summarized in Table D, are based on a scale of 0 to 100 where 0 is no effect and 100 is complete control. A dash (-) response means no test result.

wheat, winter = assay type: in vivo, Triticum aestivum; conditions: for Plant response rating: Postemergence, Wheat, Winter, scale 0 to 100; for Plant response rating, Wheat, Winter: Preemergence, scale 0 to 100 (0 no effect, 100 complete control)
From the text: as §1

wheat, spring = assay type: in vivo, Triticum aestivum; conditions: for Plant response rating: Postemergence, Wheat, Spring, scale 0 to 100; for Plant response rating, Wheat, Spring: Preemergence, scale 0 to 100 (0 no effect, 100 complete control)
From the text: as §1

field violet = assay type: in vivo, Viola arvensis; conditions: for Plant response rating: Field Violet, scale 0 to 100; for Plant response rating, Field Violet: scale 0 to 100 (0 no effect, 100 complete control)
From the text: as §1

blackgrass = assay type: in vivo, Alopecurus myosuroides; conditions: for Plant response rating: Blackgrass, scale 0 to 100; for Plant response rating, Blackgrass: scale 0 to 100 (0 no effect, 100 complete control)
From the text: as §1

bromegrass, downy = assay type: in vivo, Bromus tectorum; conditions: for Plant response rating: Bromegrass, Downy, scale 0 to 100; for Plant response rating, Bromegrass, Downy: scale 0 to 100 (0 no effect, 100 complete control)
From the text: as §1

ryegrass, Italian = assay type: in vivo, Lolium multiflorum; conditions: for Plant response rating: Postemergence, Ryegrass, Italian, scale 0 to 100; for Plant response rating, Ryegrass, Italian: Preemergence, scale 0 to 100 (0 no effect, 100 complete control)
From the text: as §1

O=C1NCC(c2ccc(F)c(F)c2)C1C(=O)Nc1ccccc1C(F)(F)F (racemic) [Compound 6]
Plant response rating (radish, wild; 16 g ai/ha): 0
Plant response rating (radish, wild; 31 g ai/ha): 0
Plant response rating (radish, wild; 62 g ai/ha): 0
Plant response rating (radish, wild; 125 g ai/ha): 0
Plant response rating (radish, wild; 250 g ai/ha): 10
Plant response rating, Radish, Wild (radish, wild; 16 g ai/ha): 0
Plant response rating (wheat, winter; 16 g ai/ha): 0
Plant response rating (wheat, winter; 31 g ai/ha): 0
Plant response rating (wheat, winter; 62 g ai/ha): 0
Plant response rating (wheat, winter; 125 g ai/ha): 0
Plant response rating (wheat, winter; 250 g ai/ha): 0
Plant response rating, Wheat, Winter (wheat, winter; 62 g ai/ha): 0
Plant response rating, Wheat, Winter (wheat, winter; 125 g ai/ha): 0
Plant response rating, Wheat, Winter (wheat, winter; 16 g ai/ha): 0
Plant response rating, Wheat, Winter (wheat, winter; 31 g ai/ha): 0
Plant response rating, Wheat, Winter (wheat, winter; 250 g ai/ha): 0
Plant response rating (wheat, spring; 16 g ai/ha): 0
Plant response rating (wheat, spring; 31 g ai/ha): 0
Plant response rating (wheat, spring; 62 g ai/ha): 5
Plant response rating (wheat, spring; 125 g ai/ha): 5
Plant response rating (wheat, spring; 250 g ai/ha): 5
Plant response rating, Wheat, Spring (wheat, spring; 62 g ai/ha): 0
Plant response rating, Wheat, Spring (wheat, spring; 125 g ai/ha): 0
Plant response rating, Wheat, Spring (wheat, spring; 16 g ai/ha): 0
Plant response rating, Wheat, Spring (wheat, spring; 31 g ai/ha): 0
Plant response rating, Wheat, Spring (wheat, spring; 250 g ai/ha): 0
Plant response rating (field violet; Postemergence, 16 g ai/ha): 0
Plant response rating (field violet; Postemergence, 31 g ai/ha): 0
Plant response rating (field violet; Postemergence, 62 g ai/ha): 20
Plant response rating (field violet; Postemergence, 125 g ai/ha): 20
Plant response rating (field violet; Postemergence, 250 g ai/ha): 25
Plant response rating, Field Violet (field violet; Preemergence, 62 g ai/ha): 0
Plant response rating, Field Violet (field violet; Preemergence, 16 g ai/ha): 0
Plant response rating, Field Violet (field violet; Preemergence, 31 g ai/ha): 0
Plant response rating (field violet; Preemergence, 125 g ai/ha): 0
Plant response rating (field violet; Preemergence, 250 g ai/ha): 0
Plant response rating (blackgrass; Postemergence, 16 g ai/ha): 0
Plant response rating (blackgrass; Postemergence, 31 g ai/ha): 0
Plant response rating (blackgrass; Postemergence, 62 g ai/ha): 5
Plant response rating (blackgrass; Postemergence, 125 g ai/ha): 5
Plant response rating (blackgrass; Postemergence, 250 g ai/ha): 10
Plant response rating, Blackgrass (blackgrass; Preemergence, 62 g ai/ha): 0
Plant response rating, Blackgrass (blackgrass; Preemergence, 16 g ai/ha): 0
Plant response rating, Blackgrass (blackgrass; Preemergence, 31 g ai/ha): 0
Plant response rating (blackgrass; Preemergence, 125 g ai/ha): 0
Plant response rating (blackgrass; Preemergence, 250 g ai/ha): 0
Plant response rating (bromegrass, downy; Postemergence, 16 g ai/ha): 0
Plant response rating (bromegrass, downy; Postemergence, 31 g ai/ha): 0
Plant response rating (bromegrass, downy; Postemergence, 62 g ai/ha): 0
Plant response rating (bromegrass, downy; Postemergence, 125 g ai/ha): 0
Plant response rating (bromegrass, downy; Postemergence, 250 g ai/ha): 0
Plant response rating, Bromegrass, Downy (bromegrass, downy; Preemergence, 62 g ai/ha): 0
Plant response rating, Bromegrass, Downy (bromegrass, downy; Preemergence, 16 g ai/ha): 0
Plant response rating, Bromegrass, Downy (bromegrass, downy; Preemergence, 31 g ai/ha): 0
Plant response rating (bromegrass, downy; Preemergence, 125 g ai/ha): 0
Plant response rating (bromegrass, downy; Preemergence, 250 g ai/ha): 10
Plant response rating (ryegrass, Italian; 16 g ai/ha): 0
Plant response rating (ryegrass, Italian; 31 g ai/ha): 0
Plant response rating (ryegrass, Italian; 62 g ai/ha): 0
Plant response rating (ryegrass, Italian; 125 g ai/ha): 0
Plant response rating (ryegrass, Italian; 250 g ai/ha): 0
Plant response rating, Ryegrass, Italian (ryegrass, Italian; 62 g ai/ha): 0
Plant response rating, Ryegrass, Italian (ryegrass, Italian; 125 g ai/ha): 0
Plant response rating, Ryegrass, Italian (ryegrass, Italian; 16 g ai/ha): 0
Plant response rating, Ryegrass, Italian (ryegrass, Italian; 31 g ai/ha): 0
Plant response rating, Ryegrass, Italian (ryegrass, Italian; 250 g ai/ha): 0

O=C1NCC(c2ccc(F)c(C(F)(F)F)c2)C1C(=O)Nc1cccc(F)c1F (racemic) [Compound 77]
Plant response rating, Radish, Wild (radish, wild; 62 g ai/ha): 10
Plant response rating, Radish, Wild (radish, wild; 125 g ai/ha): 25
Plant response rating, Radish, Wild (radish, wild; 31 g ai/ha): 0
Plant response rating, Radish, Wild (radish, wild; 250 g ai/ha): 30
Plant response rating, Wheat, Winter (wheat, winter; 62 g ai/ha): 0
Plant response rating, Wheat, Winter (wheat, winter; 125 g ai/ha): 25
Plant response rating, Wheat, Winter (wheat, winter; 31 g ai/ha): 0
Plant response rating, Wheat, Winter (wheat, winter; 250 g ai/ha): 55
Plant response rating, Wheat, Spring (wheat, spring; 62 g ai/ha): 10
Plant response rating, Wheat, Spring (wheat, spring; 125 g ai/ha): 20
Plant response rating, Wheat, Spring (wheat, spring; 31 g ai/ha): 10
Plant response rating, Wheat, Spring (wheat, spring; 250 g ai/ha): 25
Plant response rating, Field Violet (field violet; Preemergence, 62 g ai/ha): 20
Plant response rating, Field Violet (field violet; Preemergence, 31 g ai/ha): 15
Plant response rating (field violet; Preemergence, 125 g ai/ha): 20
Plant response rating (field violet; Preemergence, 250 g ai/ha): 55
Plant response rating, Blackgrass (blackgrass; Preemergence, 62 g ai/ha): 25
Plant response rating, Blackgrass (blackgrass; Preemergence, 31 g ai/ha): 10
Plant response rating (blackgrass; Preemergence, 125 g ai/ha): 40
Plant response rating (blackgrass; Preemergence, 250 g ai/ha): 65
Plant response rating, Bromegrass, Downy (bromegrass, downy; Preemergence, 62 g ai/ha): 0
Plant response rating, Bromegrass, Downy (bromegrass, downy; Preemergence, 31 g ai/ha): 0
Plant response rating (bromegrass, downy; Preemergence, 125 g ai/ha): 10
Plant response rating (bromegrass, downy; Preemergence, 250 g ai/ha): 25
Plant response rating, Ryegrass, Italian (ryegrass, Italian; 62 g ai/ha): 15
Plant response rating, Ryegrass, Italian (ryegrass, Italian; 125 g ai/ha): 25
Plant response rating, Ryegrass, Italian (ryegrass, Italian; 31 g ai/ha): 15
Plant response rating, Ryegrass, Italian (ryegrass, Italian; 250 g ai/ha): 35

O=C1NCC(c2ccc(C(F)(F)F)cc2)C1C(=O)Nc1ccccc1F (stereo not drawn) [Compound 231]
Plant response rating (radish, wild; 31 g ai/ha): 30
Plant response rating (radish, wild; 62 g ai/ha): 70
Plant response rating (radish, wild; 125 g ai/ha): 75
Plant response rating (radish, wild; 250 g ai/ha): 70
Plant response rating, Radish, Wild (radish, wild; 62 g ai/ha): 0
Plant response rating, Radish, Wild (radish, wild; 125 g ai/ha): 0
Plant response rating, Radish, Wild (radish, wild; 31 g ai/ha): 0
Plant response rating, Radish, Wild (radish, wild; 250 g ai/ha): 0
Plant response rating (wheat, winter; 31 g ai/ha): 0
Plant response rating (wheat, winter; 62 g ai/ha): 0
Plant response rating (wheat, winter; 125 g ai/ha): 0
Plant response rating (wheat, winter; 250 g ai/ha): 0
Plant response rating, Wheat, Winter (wheat, winter; 62 g ai/ha): 10
Plant response rating, Wheat, Winter (wheat, winter; 125 g ai/ha): 15
Plant response rating, Wheat, Winter (wheat, winter; 31 g ai/ha): 5
Plant response rating, Wheat, Winter (wheat, winter; 250 g ai/ha): 25
Plant response rating (wheat, spring; 31 g ai/ha): 0
Plant response rating (wheat, spring; 62 g ai/ha): 0
Plant response rating (wheat, spring; 125 g ai/ha): 0
Plant response rating (wheat, spring; 250 g ai/ha): 0
Plant response rating, Wheat, Spring (wheat, spring; 62 g ai/ha): 5
Plant response rating, Wheat, Spring (wheat, spring; 125 g ai/ha): 0
Plant response rating, Wheat, Spring (wheat, spring; 31 g ai/ha): 0
Plant response rating, Wheat, Spring (wheat, spring; 250 g ai/ha): 20
Plant response rating (field violet; Postemergence, 31 g ai/ha): 20
Plant response rating (field violet; Postemergence, 62 g ai/ha): 20
Plant response rating (field violet; Postemergence, 125 g ai/ha): 10
Plant response rating (field violet; Postemergence, 250 g ai/ha): 25
Plant response rating, Field Violet (field violet; Preemergence, 62 g ai/ha): 0
Plant response rating, Field Violet (field violet; Preemergence, 125 g ai/ha): 10
Plant response rating, Field Violet (field violet; Preemergence, 31 g ai/ha): 0
Plant response rating (field violet; Preemergence, 250 g ai/ha): 0
Plant response rating (blackgrass; Postemergence, 31 g ai/ha): 0
Plant response rating (blackgrass; Postemergence, 62 g ai/ha): 10
Plant response rating (blackgrass; Postemergence, 125 g ai/ha): 10
Plant response rating (blackgrass; Postemergence, 250 g ai/ha): 20
Plant response rating, Blackgrass (blackgrass; Preemergence, 62 g ai/ha): 0
Plant response rating, Blackgrass (blackgrass; Preemergence, 125 g ai/ha): 15
Plant response rating, Blackgrass (blackgrass; Preemergence, 31 g ai/ha): 0
Plant response rating (blackgrass; Preemergence, 250 g ai/ha): 55
Plant response rating (bromegrass, downy; Postemergence, 31 g ai/ha): 15
Plant response rating (bromegrass, downy; Postemergence, 62 g ai/ha): 20
Plant response rating (bromegrass, downy; Postemergence, 125 g ai/ha): 25
Plant response rating (bromegrass, downy; Postemergence, 250 g ai/ha): 25
Plant response rating, Bromegrass, Downy (bromegrass, downy; Preemergence, 62 g ai/ha): 0
Plant response rating, Bromegrass, Downy (bromegrass, downy; Preemergence, 125 g ai/ha): 0
Plant response rating, Bromegrass, Downy (bromegrass, downy; Preemergence, 31 g ai/ha): 0
Plant response rating (bromegrass, downy; Preemergence, 250 g ai/ha): 15
Plant response rating (ryegrass, Italian; 31 g ai/ha): 0
Plant response rating (ryegrass, Italian; 62 g ai/ha): 0
Plant response rating (ryegrass, Italian; 125 g ai/ha): 0
Plant response rating (ryegrass, Italian; 250 g ai/ha): 0
Plant response rating, Ryegrass, Italian (ryegrass, Italian; 62 g ai/ha): 0
Plant response rating, Ryegrass, Italian (ryegrass, Italian; 125 g ai/ha): 0
Plant response rating, Ryegrass, Italian (ryegrass, Italian; 31 g ai/ha): 0
Plant response rating, Ryegrass, Italian (ryegrass, Italian; 250 g ai/ha): 0
